ChEMBL document CHEMBL1125035, “Synthesis and biological activity of novel vitamin D analogues: 24,24-difluoro-25-hydroxy-26,27-dimethylvitamin D3 and 24,24-difluoro-1 alpha,25-dihydroxy-26,27-dimethylvitamin D3” (1990)

How the values were obtained:
[1] = molecular target: T1, Vitamin D-binding protein (Rattus norvegicus) (UniProt P04276); assay: Displacement of [3H]25-(OH)-D3 from rat plasma Vitamin D binding protein; type: cell-free
T1 sequence (whole entry): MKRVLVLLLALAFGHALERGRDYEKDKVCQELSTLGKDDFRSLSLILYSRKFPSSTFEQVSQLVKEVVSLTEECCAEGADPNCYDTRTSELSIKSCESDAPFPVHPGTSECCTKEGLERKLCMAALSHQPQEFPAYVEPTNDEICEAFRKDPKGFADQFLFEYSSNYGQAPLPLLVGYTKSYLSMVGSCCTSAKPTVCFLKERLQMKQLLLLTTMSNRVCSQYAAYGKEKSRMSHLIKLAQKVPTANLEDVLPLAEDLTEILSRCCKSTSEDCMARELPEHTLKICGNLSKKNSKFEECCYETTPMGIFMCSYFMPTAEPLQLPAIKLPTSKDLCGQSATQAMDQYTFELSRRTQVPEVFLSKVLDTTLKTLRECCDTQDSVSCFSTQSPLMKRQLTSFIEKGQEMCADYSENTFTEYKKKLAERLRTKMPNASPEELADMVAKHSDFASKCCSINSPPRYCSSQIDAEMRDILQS

[2] = species: Gallus gallus; assay: Bind to chick intestinal Vitamin D3 receptor for 1,25-(OH)2-D3
[3] = species: Rattus norvegicus; assay: Calcium binding protein induction in duodenal organ culture at a concentration of 1 nM in Male Albino rats; type: functional
[4] = Relative potency against calcium binding protein induction in duodenal organ culture at a concentration of 0.01 nM compared to 1,25-(OH)2-D3 in Male Albino rats; type: functional
[5] = species: Rattus norvegicus; assay: Calcium binding protein induction in duodenal organ culture at a concentration of 10 nM in Male Albino rats; type: functional
[6] = species: Rattus norvegicus; assay: Calcium binding protein induction in duodenal organ culture at a concentration of 0.01 nM in Male Albino rats; type: functional
[7] = species: Rattus norvegicus; assay: Calcium binding protein induction in duodenal organ culture at a concentration of 0.1 nM in Male Albino rats; type: functional

Structure (SMILES) | B50 [1] [nM] | B50 [2] [nM] | also measured
C=C1CC[C@H](O)C/C1=C/C=C1\CCC[C@]2(C)[C@@H]([C@H](C)CCCC(C)C)CC[C@@H]12 | 338 |  | 
C=C1CC[C@H](O)C/C1=C/C=C1\CCC[C@]2(C)[C@@H]([C@H](C)CCC[C@@](C)(O)CO)CC[C@@H]12 | 4.03 | 4300 | 
C=C1CC[C@H](O)C/C1=C/C=C1\CCC[C@]2(C)[C@@H]([C@H](C)CC[C@@H](O)C(C)(C)O)CC[C@@H]12 | 3.22 | 804 | 
C=C1/C(=C/C=C2\CCC[C@]3(C)[C@@H]([C@H](C)CCC(F)(F)C(O)(CC)CC)CC[C@@H]23)C[C@@H](O)C[C@@H]1O |  |  | Ca2+ binding protein [3]: 49.5 ug (100mg of duodenum)-1; Relative potency [4]: 325; Ca2+ binding protein [5]: 94 ug (100mg of duodenum)-1; Ca2+ binding protein [6]: 11.9 ug (100mg of duodenum)-1; Ca2+ binding protein [7]: 21.7 ug (100mg of duodenum)-1
C=C1/C(=C/C=C2\CCC[C@]3(C)[C@@H]([C@H](C)CCCC(C)C)CC[C@@H]23)C[C@@H](O)C[C@@H]1O | 848 | 139 | 
